Results published in the NIST ThermoML archive (doi:10.1016/j.fluid.2013.11.026).

Legend:
[1] = refractive index (Na D-line) (dimensionless); conditions: 101.33 kPa, Liquid, Standard Abbe refractometry
[2] = 101.33 kPa, Liquid, Vibrating tube method
[3] = excess molar enthalpy (molar enthalpy of mixing); xn = mol fraction of the nth substance listed; conditions: 101 kPa, Liquid, Calvet calorimetry
[4] = xn = mol fraction of the nth substance listed; conditions: 101 kPa, Liquid, Vibrating tube method

CCCCOC=O [butyl methanoate]
Conditions	mass density, [2] [kg/m3]	refractive index, [1]
291.15 K	895.86	1.3904
298.15 K	888.47	1.3872

CCCCOC=O [butyl methanoate] + CCCCC
Conditions	excess molar enthalpy [kcal/mol]	mass density [kg/m3]
[3], 291.15 K, x1 = 0.0661	0.0774	–
[3], 291.15 K, x1 = 0.1254	0.1231	–
[3], 291.15 K, x1 = 0.1836	0.1594	–
[3], 291.15 K, x1 = 0.2321	0.1862	–
[3], 291.15 K, x1 = 0.2846	0.2041	–
[3], 291.15 K, x1 = 0.3351	0.2141	–
[3], 291.15 K, x1 = 0.3832	0.2196	–
[3], 291.15 K, x1 = 0.4276	0.2208	–
[3], 291.15 K, x1 = 0.4704	0.2187	–
[3], 291.15 K, x1 = 0.5095	0.2156	–
[3], 291.15 K, x1 = 0.5587	0.2084	–
[3], 291.15 K, x1 = 0.6121	0.1965	–
[3], 291.15 K, x1 = 0.6666	0.1781	–
[3], 291.15 K, x1 = 0.7272	0.1522	–
[3], 291.15 K, x1 = 0.799	0.118	–
[3], 291.15 K, x1 = 0.8702	0.076	–
[3], 291.15 K, x1 = 0.9372	0.0394	–
[3], 298.15 K, x1 = 0.0471	0.0748	–
[3], 298.15 K, x1 = 0.0941	0.13	–
[3], 298.15 K, x1 = 0.1606	0.1769	–
[3], 298.15 K, x1 = 0.2273	0.2079	–
[3], 298.15 K, x1 = 0.2903	0.228	–
[3], 298.15 K, x1 = 0.3523	0.238	–
[3], 298.15 K, x1 = 0.4102	0.24	–
[3], 298.15 K, x1 = 0.4611	0.2361	–
[3], 298.15 K, x1 = 0.5095	0.2292	–
[3], 298.15 K, x1 = 0.5166	0.2254	–
[3], 298.15 K, x1 = 0.5673	0.2163	–
[3], 298.15 K, x1 = 0.6237	0.202	–
[3], 298.15 K, x1 = 0.6862	0.1773	–
[3], 298.15 K, x1 = 0.754	0.1511	–
[3], 298.15 K, x1 = 0.8174	0.1202	–
[3], 298.15 K, x1 = 0.8803	0.0815	–
[3], 298.15 K, x1 = 0.9477	0.0402	–
[4], 291.15 K, x1 = 0.0482	–	640.01
[4], 291.15 K, x1 = 0.1029	–	654.1
[4], 291.15 K, x1 = 0.1541	–	667.59
[4], 291.15 K, x1 = 0.2028	–	680.41
[4], 291.15 K, x1 = 0.2999	–	706.35
[4], 291.15 K, x1 = 0.3486	–	719.53
[4], 291.15 K, x1 = 0.453	–	747.88
[4], 291.15 K, x1 = 0.5029	–	761.43
[4], 291.15 K, x1 = 0.5974	–	786.96
[4], 291.15 K, x1 = 0.7	–	814.79
[4], 291.15 K, x1 = 0.8074	–	843.81
[4], 291.15 K, x1 = 0.8966	–	868.4
[4], 291.15 K, x1 = 0.9452	–	881.04
[4], 291.15 K, x1 = 1	–	895.86
[4], 298.15 K, x1 = 0.0584	–	635.57
[4], 298.15 K, x1 = 0.1147	–	650.09
[4], 298.15 K, x1 = 0.1936	–	670.91
[4], 298.15 K, x1 = 0.301	–	699.46
[4], 298.15 K, x1 = 0.343	–	710.8
[4], 298.15 K, x1 = 0.3886	–	723.15
[4], 298.15 K, x1 = 0.4521	–	740.45
[4], 298.15 K, x1 = 0.4958	–	752.3
[4], 298.15 K, x1 = 0.5442	–	765.49
[4], 298.15 K, x1 = 0.6477	–	793.55
[4], 298.15 K, x1 = 0.7529	–	822.18
[4], 298.15 K, x1 = 0.8993	–	861.53
[4], 298.15 K, x1 = 1	–	888.47

CCOC=O [ethyl methanoate]
Conditions	mass density, [2] [kg/m3]	refractive index, [1]
291.15 K	923.4	1.3614
298.15 K	914.35	1.358

CCOC=O [ethyl methanoate] + CCCCC
Conditions	excess molar enthalpy [kcal/mol]	mass density [kg/m3]
[3], 291.15 K, x1 = 0.0907	0.109	–
[3], 291.15 K, x1 = 0.1625	0.1671	–
[3], 291.15 K, x1 = 0.2451	0.223	–
[3], 291.15 K, x1 = 0.3245	0.2663	–
[3], 291.15 K, x1 = 0.3983	0.2937	–
[3], 291.15 K, x1 = 0.4484	0.3043	–
[3], 291.15 K, x1 = 0.4961	0.3093	–
[3], 291.15 K, x1 = 0.536	0.3057	–
[3], 291.15 K, x1 = 0.5703	0.3	–
[3], 291.15 K, x1 = 0.605	0.2945	–
[3], 291.15 K, x1 = 0.6447	0.2818	–
[3], 291.15 K, x1 = 0.6893	0.2653	–
[3], 291.15 K, x1 = 0.7332	0.2445	–
[3], 291.15 K, x1 = 0.7743	0.2182	–
[3], 291.15 K, x1 = 0.8244	0.1855	–
[3], 291.15 K, x1 = 0.874	0.1465	–
[3], 291.15 K, x1 = 0.9259	0.0968	–
[3], 291.15 K, x1 = 0.9621	0.0454	–
[3], 298.15 K, x1 = 0.0714	0.106	–
[3], 298.15 K, x1 = 0.1517	0.1922	–
[3], 298.15 K, x1 = 0.2221	0.2512	–
[3], 298.15 K, x1 = 0.3085	0.299	–
[3], 298.15 K, x1 = 0.3849	0.3186	–
[3], 298.15 K, x1 = 0.445	0.3217	–
[3], 298.15 K, x1 = 0.4999	0.3236	–
[3], 298.15 K, x1 = 0.5411	0.32	–
[3], 298.15 K, x1 = 0.5726	0.3143	–
[3], 298.15 K, x1 = 0.6159	0.3069	–
[3], 298.15 K, x1 = 0.6668	0.2935	–
[3], 298.15 K, x1 = 0.7209	0.2717	–
[3], 298.15 K, x1 = 0.7702	0.2428	–
[3], 298.15 K, x1 = 0.8273	0.2065	–
[3], 298.15 K, x1 = 0.8813	0.16	–
[3], 298.15 K, x1 = 0.9227	0.104	–
[3], 298.15 K, x1 = 0.9662	0.049	–
[4], 291.15 K, x1 = 0.054	–	637.14
[4], 291.15 K, x1 = 0.063	–	638.38
[4], 291.15 K, x1 = 0.118	–	649.24
[4], 291.15 K, x1 = 0.161	–	658.03
[4], 291.15 K, x1 = 0.208	–	668.06
[4], 291.15 K, x1 = 0.305	–	689.98
[4], 291.15 K, x1 = 0.35	–	701.21
[4], 291.15 K, x1 = 0.405	–	715.14
[4], 291.15 K, x1 = 0.499	–	741.07
[4], 291.15 K, x1 = 0.595	–	769.91
[4], 291.15 K, x1 = 0.656	–	789.59
[4], 291.15 K, x1 = 0.751	–	822.65
[4], 291.15 K, x1 = 0.794	–	838.31
[4], 291.15 K, x1 = 0.85	–	859.54
[4], 291.15 K, x1 = 0.895	–	877.8
[4], 291.15 K, x1 = 0.941	–	896.94
[4], 291.15 K, x1 = 1	–	923.4
[4], 298.15 K, x1 = 0.058	–	631.15
[4], 298.15 K, x1 = 0.101	–	639.36
[4], 298.15 K, x1 = 0.104	–	639.54
[4], 298.15 K, x1 = 0.196	–	658.7
[4], 298.15 K, x1 = 0.252	–	670.7
[4], 298.15 K, x1 = 0.304	–	682.9
[4], 298.15 K, x1 = 0.405	–	708.3
[4], 298.15 K, x1 = 0.496	–	733.3
[4], 298.15 K, x1 = 0.609	–	766.9
[4], 298.15 K, x1 = 0.702	–	797.1
[4], 298.15 K, x1 = 0.801	–	832.2
[4], 298.15 K, x1 = 0.858	–	854.37
[4], 298.15 K, x1 = 0.909	–	875.28
[4], 298.15 K, x1 = 0.953	–	893.59
[4], 298.15 K, x1 = 1	–	914.35
